Data taken from ChEMBL document CHEMBL5321198, “Identification, in-vitro anti-plasmodial assessment and docking studies of series of tetrahydrobenzothieno[2,3-d]pyrimidine-acetamide molecular hybrids as potential antimalarial agents” (Eur J Med Chem, 2023).

Key:
[1] = tested on: Plasmodium falciparum; assay: Antimalarial activity against chloroquine resistant Plasmodium falciparum W2 infected in human erythrocytes assessed as inhibition of parasite growth incubated for 48 hrs by YOYO-1 dye based flow cytometric analysis; type: functional, organism-based; details: W2, 48 h
[2] = tested on: Erythrocyte; assay: Cytotoxicity against human erythrocyte at 3 to 100 uM incubated for 3 hrs by microplate reader assay; type: toxicity, cell-based; details: dose 3-100 µM
[3] = Selectivity index, ratio of IC50 for cytotoxicity against human HPL1D cells to IC50 for antimalarial activity against chloroquine resistant Plasmodium falciparum W2 infected in human erythrocytes; type: toxicity, cell-based; details: read-out: Ratio IC50
[4] = tested on: Erythrocyte; assay: Hemolytic activity in human erythrocyte assessed as hemolysis at 25 uM incubated for 3 hrs by microplate reader assay; type: toxicity, cell-based
[5] = Selectivity index, ratio of IC50 for cytotoxicity against human MDA-MB-231 cells to IC50 for antimalarial activity against chloroquine resistant Plasmodium falciparum W2 infected in human erythrocytes; type: functional
[6] = tested on: Plasmodium falciparum; assay: Resistance index, ratio of IC50 for antimalarial activity against chloroquine resistant Plasmodium falciparum W2 infected in human erythrocytes to IC50 for antimalarial activity against chloroquine sensitive Plasmodium falciparum 3D7 infected in human erythrocytes; type: functional
[7] = tested on: MDA-MB-231; assay: Cytotoxicity against human MDA-MB-231 cells incubated for 24 hrs by MTT assay; type: functional, cell-based; details: MDA-MB-231, 24 h
[8] = Cytotoxicity against human HPL1D cells incubated for 24 hrs by MTT assay; type: toxicity, cell-based
[9] = Selectivity index, ratio of IC50 for cytotoxicity against human A549 cells to IC50 for antimalarial activity against chloroquine resistant Plasmodium falciparum W2 infected in human erythrocytes; type: functional
[10] = tested on: Plasmodium falciparum; assay: Antimalarial activity against chloroquine sensitive Plasmodium falciparum 3D7 infected in human erythrocytes assessed as inhibition of parasite growth incubated for 48 hrs by YOYO-1 dye based flow cytometric analysis; type: functional, organism-based; details: 3D7, 48 h
[11] = tested on: A549; assay: Cytotoxicity against human A549 cells incubated for 24 hrs by MTT assay; type: functional, cell-based; details: A549, 24 h

Row | SMILES | IC50 [1] | Activity [2] | selectivity ratio [3] | Activity [4] | Ratio IC50 [5] | Ratio IC50 [6] | IC50 [7] | IC50 at 24 h [8] | Ratio IC50 [9] | IC50 [10] | IC50 [11]
1 | O=C(O)C(c1ccc(C(F)(F)F)cc1)N1CCN(c2ncnc3sc4c(c23)CCCC4)CC1 (centres undefined) | 6630 nM | – | – | – | – | – | – | – | – | – | –
2 | COc1ccc(NC(=O)C(c2ccc(Cl)c(Cl)c2)N2CCN(c3ncnc4sc5c(c34)CCCC5)CC2)cc1 (centres undefined) | 68 nM | Non-Toxic | 460 | Toxic | 10.88 | 0.073 | 740 nM | 31300 nM | 11.91 | 933 nM | 810 nM
3 | COc1ccc(NC(=O)C(c2ccc(C(F)(F)F)cc2)N2CCN(c3ncnc4sc5c(c34)CCCC5)CC2)cc1 (centres undefined) | 56 nM | Non-Toxic | 716 | Toxic | 1.97 | 0.067 | 110 nM | 39900 nM | 1.43 | 837 nM | 80 nM
4 | COc1ccc(NC(=O)C(c2ccc(OC(F)(F)F)cc2)N2CCN(c3ncnc4sc5c(c34)CCCC5)CC2)cc1 (centres undefined) | 61 nM | Non-Toxic | 472 | Toxic | 7.56 | 0.068 | 460 nM | 28700 nM | 6.08 | 888 nM | 370 nM
5 | O=C(O)C(c1ccc(F)c(F)c1)N1CCN(c2ncnc3sc4c(c23)CCCC4)CC1 (centres undefined) | > 10000 nM | – | – | – | – | – | – | – | – | – | –
6 | O=C(O)C(c1ccc(OC(F)(F)F)cc1)N1CCN(c2ncnc3sc4c(c23)CCCC4)CC1 (centres undefined) | > 10000 nM | – | – | – | – | – | – | – | – | – | –
7 | COc1cccc2c1C(=O)c1c(O)c3c(c(O)c1C2=O)C[C@@](O)(C(=O)CO)C[C@@H]3O[C@H]1C[C@H](N)[C@H](O)[C@H](C)O1 [DOXORUBICIN] | – | – | – | – | – | – | 5800 nM | – | – | – | –
8 | COc1ccc(NC(=O)C(c2ccc(C)cc2)N2CCN(c3ncnc4sc5c(c34)CCCC5)CC2)cc1 (centres undefined) | 268 nM | Non-Toxic | – | Toxic | – | 0.387 | – | – | – | 692 nM | –
9 | COc1ccc(C(C(=O)O)N2CCN(c3ncnc4sc5c(c34)CCCC5)CC2)cc1 (centres undefined) | > 10000 nM | – | – | – | – | – | – | – | – | – | –
10 | COc1ccc(NC(=O)C(c2ccc(F)cc2)N2CCN(c3ncnc4sc5c(c34)CCCC5)CC2)cc1 (centres undefined) | 171 nM | Non-Toxic | – | Toxic | – | 0.173 | – | – | – | 1220 nM | –
11 | O=C(O)C(c1ccc(F)cc1)N1CCN(c2ncnc3sc4c(c23)CCCC4)CC1 (centres undefined) | > 10000 nM | – | – | – | – | – | – | – | – | – | –
12 | O=C(O)C(c1ccc(F)c(Cl)c1)N1CCN(c2ncnc3sc4c(c23)CCCC4)CC1 (centres undefined) | > 10000 nM | – | – | – | – | – | – | – | – | – | –
13 | COc1ccc(NC(=O)C(c2ccc(F)c(F)c2)N2CCN(c3ncnc4sc5c(c34)CCCC5)CC2)cc1 (centres undefined) | 133 nM | Non-Toxic | 205 | Toxic | 2.33 | 0.183 | 310 nM | 27200 nM | 5.64 | 728 nM | 750 nM
14 | Cc1ccc(C(C(=O)O)N2CCN(c3ncnc4sc5c(c34)CCCC5)CC2)cc1 (centres undefined) | 8520 nM | – | – | – | – | – | – | – | – | – | –
15 | COc1ccc(NC(=O)C(c2ccc(OC)cc2)N2CCN(c3ncnc4sc5c(c34)CCCC5)CC2)cc1 (centres undefined) | 187 nM | Non-Toxic | – | Toxic | – | 0.268 | – | – | – | 698 nM | –
16 | O=C(O)C(c1ccc(Cl)c(Cl)c1)N1CCN(c2ncnc3sc4c(c23)CCCC4)CC1 (centres undefined) | > 10000 nM | – | – | – | – | – | – | – | – | – | –
17 | COc1ccc(NC(=O)C(c2ccc(F)c(Cl)c2)N2CCN(c3ncnc4sc5c(c34)CCCC5)CC2)cc1 (centres undefined) | 125 nM | Non-Toxic | 288 | Toxic | 4.15 | 0.116 | 520 nM | 36100 nM | 3.43 | 1080 nM | 430 nM
